One series relates to HeLa cells. The experiment in a line: Colony inhibition test on HeLa cells (cytotoxicity). The class given is cell-based. The following applies: Homo sapiens; for IC50: read-out: DI50 (dose causing 50% inhibition). Here is the method:
Cytotoxicity. Colony inhibition test on HeLa cells.
The test was carried on HeLa according to the method described in J. Med. Chem., 1975, 18, 703. Exponentially growing cells (2 days after inoculation) were treated with several concentrations of daunorubicin, 4-demethoxydaunorubicin, and 4-demethoxy-13-dihydrodaunorubicin.
After 24 hours of exposure to the drugs, the cells were washed, trypsinized and plated (200 cells/plate). On day 6 the colonies containing more than 50 cells were counted. The dose causing 50% inhibition was calculated on the basis of dose-reponsive curves.
Colony inhibition on HeLa cells^a
^b % respect with control

For the next series, the system named is leukemia P 388. In words: Activity against ascitic leukemia P 388 in CDF-1 mice. The series is classed as in vivo. The following applies: i.p. on day 1. Here is the method: Activity against ascitic leukemia P 388
The experiments were performed on CDF-1 mice inoculated i.p. with 10^6 leukemic cells/mouse.

A further series has as its system Gross leukemia. In words: Activity against Gross leukemia in C3H mice. The class given is in vivo. The following applies: i.v. on day 1. Here is the method: (§1) Activity against Gross leukemia
The experiments were performed on C3H mice inoculated i.v. with 2×10^6 leukemic cells/mouse.
as §1

The subject of series [1] is advanced mammary Carcinoma. In words: Activity against advanced mammary carcinoma in C3H female mice. The note with it: once a week × 4 from palpable tumor; for growth % on day 48: controls 3476. The series is classed as in vivo. Here is the method: Activity against advanced mammary Carcinoma^a
The experiments were performed on C3H female mice inoculated
with 2 × 10^6 tumor cells/mouse
^a treatment once a week × 4, starting when the tumor was […]

Where [2] appears, read: HeLa, 24 h, read-out: % Colonies (% respect with control).

Converted amounts (≈) assume the structure as drawn. Like-named read-outs stand apart in the source and are kept apart here.

In the case of `CC(=O)[C@]1(O)Cc2c(O)c3c(c(O)c2[C@@H](O[C@H]2C[C@H](N)[C@H](O)[C@H](C)O2)C1)C(=O)c1ccccc1C3=O` [4-demethoxydaunorubicin], in the series with HeLa cells (HeLa, 1.5 ng/ml, 24 hours exposure, read-out: % Colonies (% respect with control)), the activity at 0.0015 µg/mL turned out to be 126%. In addition, the activity at 0.0031 µg/mL in the series with HeLa cells (HeLa, 3.1 ng/ml, 24 hours exposure, read-out: % Colonies (% respect with control)) turned out to be 73%. For the same molecule, in the series with HeLa cells (HeLa, 6.2 ng/ml, 24 hours exposure, read-out: % Colonies (% respect with control)), the activity at 0.0062 µg/mL is 37%. Further, the activity at 0.0125 µg/mL in the series with HeLa cells (HeLa, 12.5 ng/ml, 24 hours exposure, read-out: % Colonies (% respect with control)) came out at 10%. For the same molecule, in the series on HeLa cells (HeLa, 25 ng/ml, 24 hours exposure, read-out: % Colonies (% respect with control)), the activity at 0.025 µg/mL came to 0%. Also, in the series on HeLa cells (HeLa colony inhibition, 24 hours exposure), the IC50 came out at 5.5 ng/mL (≈ 0.0111 µM). The T/C % in the series on leukemia P 388 (0.33 mg/kg) stood at 150%; in the series with leukemia P 388 (0.5 mg/kg) it was 170%; in the series on leukemia P 388 (0.75 mg/kg) it was 155%; with Gross leukemia (1.9 mg/kg), 233%; in the series with Gross leukemia (2.5 mg/kg) it was 233%; in the series with Gross leukemia (3.3 mg/kg) it was 266%. Moreover, the toxic deaths is given as 0/10 in the series on leukemia P 388 (0.33 mg/kg); 0/10 in the series with leukemia P 388 (0.5 mg/kg); 3/10 in the series with leukemia P 388 (0.75 mg/kg); 0/10 in the series with Gross leukemia (1.9 mg/kg); 0/10 in the series on Gross leukemia (2.5 mg/kg); 0/10 in the series on Gross leukemia (3.3 mg/kg). In addition, the “inhibition % on day 48” value turned out to be 0% in series [1] (0.8 mg/kg) and 42% in series [1] (1.2 mg/kg). Also, the “growth % on day 48” value is on record as 4322% in series [1] (0.8 mg/kg) and 2029% in series [1] (1.2 mg/kg).

In the case of `COc1cccc2c1C(=O)c1c(O)c3c(c(O)c1C2=O)C[C@@](O)(C(C)=O)C[C@@H]3O[C@H]1C[C@H](N)[C@H](O)[C@H](C)O1` [daunorubicin], the activity at 0.0062 µg/mL with HeLa cells (setting [2]) stood at 92%. Moreover, the activity at 0.0125 µg/mL in the series with HeLa cells (setting [2]) worked out at 32%. The activity at 0.025 µg/mL in the series on HeLa cells (setting [2]) came out at 3%. Further, in the series on HeLa cells (HeLa, 24 h), the IC50 is 11 ng/mL (≈ 0.0209 µM). Besides, the T/C % was 180% in the series on leukemia P 388 (4.4 mg/kg); 168% in the series on leukemia P 388 (6.6 mg/kg); 150% in the series on Gross leukemia (10 mg/kg); 183% with Gross leukemia (15 mg/kg); 233% with Gross leukemia (22.5 mg/kg). Besides, the toxic deaths with leukemia P 388 (4.4 mg/kg) is on record as 0/10; with leukemia P 388 (6.6 mg/kg), 2/10; with Gross leukemia (10 mg/kg), 0/10; with Gross leukemia (15 mg/kg), 0/10; with Gross leukemia (22.5 mg/kg) it was 0/10.

For `CC(O)[C@]1(O)Cc2c(O)c3c(c(O)c2[C@@H](O[C@H]2C[C@H](N)[C@H](O)[C@H](C)O2)C1)C(=O)c1ccccc1C3=O` (stereo partly shown) [4-demethoxy-13-dihydrodaunorubicin], in the series on HeLa cells (setting [2]), the activity at 0.00156 µg/mL is 100%. The activity at 0.0031 µg/mL in the series on HeLa cells (setting [2]) came out at 45%. For the same molecule, the activity at 0.0062 µg/mL with HeLa cells (setting [2]) came to 9%. Besides, the activity at 0.0125 µg/mL with HeLa cells (setting [2]) worked out at 0%. Further, the IC50 in the series on HeLa cells (HeLa, 24 h) stood at 3 ng/mL (≈ 0.00601 µM). Besides, the T/C % in the series with leukemia P 388 (0.14 mg/kg) was 130%; with leukemia P 388 (0.22 mg/kg), 160%; in the series on leukemia P 388 (0.33 mg/kg) it was 170%; in the series on leukemia P 388 (0.5 mg/kg), 170%; in the series with Gross leukemia (0.84 mg/kg) it was 200%; with Gross leukemia (1.26 mg/kg), 250%. In the series with Gross leukemia (1.9 mg/kg), the T/C % is 258%. The toxic deaths in the series with leukemia P 388 (0.14 mg/kg) was 0/10; in the series on leukemia P 388 (0.22 mg/kg), 0/10; with leukemia P 388 (0.33 mg/kg), 0/10; in the series with leukemia P 388 (0.5 mg/kg) it was 3/10; in the series with Gross leukemia (0.84 mg/kg), 0/10; with Gross leukemia (1.26 mg/kg) it was 0/10. Moreover, the toxic deaths in the series with Gross leukemia (1.9 mg/kg) is on record as 0/10. In addition, the results for the “inhibition % on day 48” value in series [1] (0.6 mg/kg), in series [1] (0.8 mg/kg) and in series [1] (1.2 mg/kg) were 0%, 3% and 65%, respectively. Besides, the “growth % on day 48” value in series [1] (0.6 mg/kg) is recorded as 5124%; in series [1] (0.8 mg/kg), 3374%; in series [1] (1.2 mg/kg), 1201%.

Values taken from patent US4604381A, “4-demethoxy-13-dihydrodaunorubicin and use thereof” (Farmitalia Carlo Erba S.p.A., priority 1984, dated 1986).
